Data: PubChem BioAssay AID2060891 (Molecular Pharmacology Branch, DTP, NCI, 2025)

Tested on: K98450-129-R-PDC complex spheroid growth, percent test/control
Assay: Anticancer human tumor K98450-129-R-PDC patient-derived colon adenocarcinoma cell line growth inhibition [RAS]
Conditions: for IC50: curve of first compound; for viability, T/C: stronger effect = lower value; active = viability on the fitted dose curve at most 10% of control; inactive = the rest
Method in brief: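 Tumour cells grown as complex spheroids with HUVEC endothelial cells and mesenchymal stem cells, treated with RAS pathway inhibitor combinations. Each agent spans half-log steps from near clinical Cmax, or 10 microM where Cmax is unknown.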
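Note: spheroids exposed to agents for seven days before the viability readout.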
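Throughout, for viability, T/C: luminescence used as a proxy for viable cell amount.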

C=CC(=O)N1CCN(c2nc(OCC3CCCN3C)nc3c(F)c(-c4nc(N)cc(C)c4C(F)(F)F)c(Cl)cc23)C(C)C1 (centres undefined) + CCn1c(-c2cc(N3CCN(C)CC3)cnc2C(C)OC)c2c3cc(ccc31)-c1csc(n1)CC(NC(=O)C1CC1C)C(=O)N1CCCC(N1)C(=O)OCC(C)(C)C2
< 0.00316 µM: IC50 (second compound 0.03 µM) | IC50 (second compound 0.0949 µM) | IC50 (second compound 0.3 µM)
inactive: viability, T/C (second compound 0.000949 µM, first compound 0.00316 µM) 88% | viability, T/C (second compound 0.000949 µM, first compound 0.01 µM) 71.2% | viability, T/C (second compound 0.000949 µM, first compound 0.0316 µM) 69% | viability, T/C (second compound 0.000949 µM, first compound 0.1 µM) 44.4% | viability, T/C (second compound 0.000949 µM, first compound 0.316 µM) 40.1% | viability, T/C (second compound 0.000949 µM, first compound 1 µM) 34.5% | viability, T/C (second compound 0.003 µM, first compound 0.00316 µM) 88% | viability, T/C (second compound 0.003 µM, first compound 0.01 µM) 68.5% | viability, T/C (second compound 0.003 µM, first compound 0.0316 µM) 55.6% | viability, T/C (second compound 0.003 µM, first compound 0.1 µM) 41.8% | viability, T/C (second compound 0.003 µM, first compound 0.316 µM) 42.1% | viability, T/C (second compound 0.003 µM, first compound 1 µM) 34.8% | viability, T/C (second compound 0.00949 µM, first compound 0.00316 µM) 72.7% | viability, T/C (second compound 0.00949 µM, first compound 0.01 µM) 61.7% | viability, T/C (second compound 0.00949 µM, first compound 0.0316 µM) 49.8% | viability, T/C (second compound 0.00949 µM, first compound 0.1 µM) 37.2% | viability, T/C (second compound 0.00949 µM, first compound 0.316 µM) 29.1% | viability, T/C (second compound 0.00949 µM, first compound 1 µM) 20% | viability, T/C (second compound 0.03 µM, first compound 0.00316 µM) 44.8% | viability, T/C (second compound 0.03 µM, first compound 0.01 µM) 46.3% | viability, T/C (second compound 0.03 µM, first compound 0.0316 µM) 37.3% | viability, T/C (second compound 0.03 µM, first compound 0.1 µM) 19.8% | viability, T/C (second compound 0.03 µM, first compound 0.316 µM) 20.9% | viability, T/C (second compound 0.03 µM, first compound 1 µM) 18.1% | viability, T/C (second compound 0.0949 µM, first compound 0.00316 µM) 16.1% | viability, T/C (second compound 0.0949 µM, first compound 0.01 µM) 16.9% | viability, T/C (second compound 0.0949 µM, first compound 0.0316 µM) 14.4% | viability, T/C (second compound 0.0949 µM, first compound 0.1 µM) 14.7% | viability, T/C (second compound 0.0949 µM, first compound 0.316 µM) 14.3% | viability, T/C (second compound 0.0949 µM, first compound 1 µM) 12% | viability, T/C (second compound 0.3 µM, first compound 0.00316 µM) 10.9% | viability, T/C (second compound 0.3 µM, first compound 0.01 µM) 10.5% | viability, T/C (second compound 0.3 µM, first compound 0.0316 µM) 11.6% | viability, T/C (second compound 0.3 µM, first compound 0.1 µM) 10.3% | viability, T/C (second compound 0.3 µM, first compound 0.316 µM) 11.7% | viability, T/C (second compound 0.3 µM, first compound 1 µM) 12.4%
0.0304 µM: IC50 (second compound 0.00949 µM)
0.0527 µM: IC50 (second compound 0.003 µM)
0.0906 µM: IC50 (second compound 0.000949 µM)

CC1(C)CCC(Nc2ncc(C(F)(F)F)c(-c3c[nH]c4c(P(C)(C)=O)c(C#N)ccc34)n2)CN1 (centres undefined) + CCn1c(-c2cc(N3CCN(C)CC3)cnc2C(C)OC)c2c3cc(ccc31)-c1csc(n1)CC(NC(=O)C1CC1C)C(=O)N1CCCC(N1)C(=O)OCC(C)(C)C2
< 0.000949 µM: IC50 (second compound 0.0949 µM) | IC50 (second compound 0.3 µM)
inactive: viability, T/C (second compound 0.000949 µM, first compound 0.000949 µM) 100% | viability, T/C (second compound 0.000949 µM, first compound 0.003 µM) 82.2% | viability, T/C (second compound 0.000949 µM, first compound 0.00949 µM) 96.2% | viability, T/C (second compound 0.000949 µM, first compound 0.03 µM) 89.7% | viability, T/C (second compound 0.000949 µM, first compound 0.0949 µM) 80.8% | viability, T/C (second compound 0.000949 µM, first compound 0.3 µM) 79.5% | viability, T/C (second compound 0.003 µM, first compound 0.000949 µM) 81.2% | viability, T/C (second compound 0.003 µM, first compound 0.003 µM) 83.2% | viability, T/C (second compound 0.003 µM, first compound 0.00949 µM) 85.6% | viability, T/C (second compound 0.003 µM, first compound 0.03 µM) 94.6% | viability, T/C (second compound 0.003 µM, first compound 0.0949 µM) 77.2% | viability, T/C (second compound 0.003 µM, first compound 0.3 µM) 69.4% | viability, T/C (second compound 0.00949 µM, first compound 0.000949 µM) 75.2% | viability, T/C (second compound 0.00949 µM, first compound 0.003 µM) 77.1% | viability, T/C (second compound 0.00949 µM, first compound 0.00949 µM) 76.7% | viability, T/C (second compound 0.00949 µM, first compound 0.03 µM) 77.8% | viability, T/C (second compound 0.00949 µM, first compound 0.0949 µM) 81.7% | viability, T/C (second compound 0.00949 µM, first compound 0.3 µM) 60.2% | viability, T/C (second compound 0.03 µM, first compound 0.000949 µM) 54.1% | viability, T/C (second compound 0.03 µM, first compound 0.003 µM) 49.5% | viability, T/C (second compound 0.03 µM, first compound 0.00949 µM) 51.2% | viability, T/C (second compound 0.03 µM, first compound 0.03 µM) 61.7% | viability, T/C (second compound 0.03 µM, first compound 0.0949 µM) 63.1% | viability, T/C (second compound 0.03 µM, first compound 0.3 µM) 43.8% | viability, T/C (second compound 0.0949 µM, first compound 0.000949 µM) 24.6% | viability, T/C (second compound 0.0949 µM, first compound 0.003 µM) 26.8% | viability, T/C (second compound 0.0949 µM, first compound 0.00949 µM) 30.6% | viability, T/C (second compound 0.0949 µM, first compound 0.03 µM) 35.1% | viability, T/C (second compound 0.0949 µM, first compound 0.0949 µM) 40.3% | viability, T/C (second compound 0.0949 µM, first compound 0.3 µM) 37% | viability, T/C (second compound 0.3 µM, first compound 0.000949 µM) 12.7% | viability, T/C (second compound 0.3 µM, first compound 0.003 µM) 14.7% | viability, T/C (second compound 0.3 µM, first compound 0.00949 µM) 17.9% | viability, T/C (second compound 0.3 µM, first compound 0.03 µM) 23.5% | viability, T/C (second compound 0.3 µM, first compound 0.0949 µM) 28.4% | viability, T/C (second compound 0.3 µM, first compound 0.3 µM) 25.2%
> 0.3 µM: IC50 (second compound 0.000949 µM) | IC50 (second compound 0.003 µM) | IC50 (second compound 0.00949 µM) | IC50 (second compound 0.03 µM)
